Laboratory results published in article PMC3702509, “Label Free Fragment Screening Using Surface Plasmon Resonance as a Tool for Fragment Finding – Analyzing Parkin, a Difficult CNS Target” (PLoS ONE, 2013).
pKd: −log10 of the molar value.

Experiments:
[1] = target: T1, FL-FLAG-Parkin 56°C (thermal treated) (Homo sapiens, UniProt O60260); experiment: SPR kinetics/affinity on thermal treated FL-FLAG Parkin captured by anti-FLAG antibody; assay type: binding
T1 construct: the entire coding region (residues 1–465) from NM_004562.1 was cloned into pFastBac; made in house; host or cells: Sf9 or Sf21 insect cells (baculovirus)
T1 sequence (O60260 1-465): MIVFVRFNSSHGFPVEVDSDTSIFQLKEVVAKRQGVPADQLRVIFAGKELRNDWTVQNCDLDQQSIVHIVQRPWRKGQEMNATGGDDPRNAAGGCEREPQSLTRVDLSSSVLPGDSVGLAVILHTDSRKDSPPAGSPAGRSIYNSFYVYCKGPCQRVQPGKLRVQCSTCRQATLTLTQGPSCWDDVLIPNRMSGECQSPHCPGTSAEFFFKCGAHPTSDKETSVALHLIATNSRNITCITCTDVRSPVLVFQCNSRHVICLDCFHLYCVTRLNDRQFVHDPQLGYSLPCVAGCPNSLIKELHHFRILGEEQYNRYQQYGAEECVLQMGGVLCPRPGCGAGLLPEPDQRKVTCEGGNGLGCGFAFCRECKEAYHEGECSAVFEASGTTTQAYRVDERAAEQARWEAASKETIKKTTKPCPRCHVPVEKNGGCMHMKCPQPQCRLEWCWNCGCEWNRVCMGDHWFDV
Description: Kinetics and Affinity measurements were performed on a GE Healthcare Biacore T100 or T200 instrument. Anti-FLAG antibody M2 was immobilized on a CM5 sensor chip using standard amine coupling procedure at a concentration of 100 μg/ml to a level of 10000 response units (RU). […] The running buffer for both methods was 10 mM HEPES pH 7.4, 150 mM NaCl, 0.005% Tween-20, 4 mM reducing agent. […] Flow cell 2 contained antibody only to control for non-specific binding of fragments to the antibody, and flow cells 3 and 4 contained antibody and captured Parkin. Untagged Parkin domain R0RBR was immobilized by amine coupling at a concentration of 100 μg/ml in 10 mM acetic acid pH 5.0 using the same running buffer as for anti-FLAG antibody immobilization. The surface was then washed with 10 mM HEPES pH 7.4, 150 mM NaCl, 0.005% Tween-20, 4 mM reducing agent for at least one hour.
(§1) The flow rate was 30μl/min. The time-dependent binding curves were monitored simultaneously. The surfaces were then regenerated after each binding experiment by washing the surfaces with an injection of running buffer. Kinetics and affinity experiments were repeated at least twice at two different test occasions.
Kinetic and affinity data were solvent corrected (fragments only), reference subtracted and blank subtracted using the Biacore T200 evaluation software V.1. Kinetic constants were determined by curve fitting using a 1∶1 binding model. Association and dissociation curves were fitted globally or locally. The rate of complex formation (1∶1 interaction) during fragment injection was calculated according to the equation (2): [drawing 2] […] The dissociation phase kd was measured using the rate of decline in RU after the injection stop, when free running buffer is flowing over the surface. Data were simultaneously fitted by the software and the dissociation constant KD calculated using equation (3). […] (3) Ligand efficiency (LE, Δg) was calculated as the binding energy of ligand per atom (equation 4) [drawing 4] […]
The dissociation half-life (t1/2) was calculated by equation (5). […]

FL-FLAG Parkin [2] = target: T2, FL-FLAG Parkin (Homo sapiens, UniProt O60260); experiment: STD NMR binding to FL-FLAG-Parkin; conditions: 4 µM FL Parkin, 0.5 mM DTT, 0.25 mM compound Z, signal at 2.6 ppm
T2 construct: the entire coding region (residues 1–465) from NM_004562.1 was cloned into pFastBac; made in house; host or cells: Sf9 or Sf21 insect cells (baculovirus)
T2 sequence (O60260 1-465): T1 sequence (O60260 1-465)
Description: All NMR experiments were conducted at 15°C on a Bruker Avance 700 MHz spectrometer equipped with a 5 mm TCI cryo-probe. 3 mm NMR tubes were used for reducing the protein consumption. […] The compound concentration was 0.25 mM. […] The Mnova 7.0 (Mestrelab Research) was used in data analysis.

[3] = target: T3, FL-FLAG-Parkin RT (non-thermal treated) (Homo sapiens, UniProt O60260); experiment: SPR kinetics/affinity on non-thermal treated FL-FLAG Parkin captured by anti-FLAG antibody; assay type: binding; conditions: for direct binding of reducing agent by SPR: non-thermal treated Parkin
T3 construct: the entire coding region (residues 1–465) from NM_004562.1 was cloned into pFastBac; made in house; host or cells: Sf9 or Sf21 insect cells (baculovirus)
T3 sequence (O60260 1-465): T1 sequence (O60260 1-465)
Description: Kinetics and Affinity measurements were performed on a GE Healthcare Biacore T100 or T200 instrument. Anti-FLAG antibody M2 was immobilized on a CM5 sensor chip using standard amine coupling procedure at a concentration of 100 μg/ml to a level of 10000 response units (RU). […] Flow cell 2 contained antibody only to control for non-specific binding of fragments to the antibody, and flow cells 3 and 4 contained antibody and captured Parkin. Untagged Parkin domain R0RBR was immobilized by amine coupling at a concentration of 100 μg/ml in 10 mM acetic acid pH 5.0 using the same running buffer as for anti-FLAG antibody immobilization. […]
as §1
Kinetic and affinity data were solvent corrected (fragments only), reference subtracted and blank subtracted using the Biacore T200 evaluation software V.1. Kinetic constants were determined by curve fitting using a 1∶1 binding model. Association and dissociation curves were fitted globally or locally. The rate of complex formation (1∶1 interaction) during fragment injection was calculated according to the equation (2): [drawing 2] (2) where R is the SPR signal in response units (RU), C is the concentration of analyte, Rmax is the maximum analyte binding capacity in RU, dR/dt is the rate of SPR signal change. To determine the association constant ka between fragment and protein, the early binding phase was used. The dissociation phase kd was measured using the rate of decline in RU after the injection stop, when free running buffer is flowing over the surface. Data were simultaneously fitted by the software and the dissociation constant KD calculated using equation (3). [drawing 3] (3) Ligand efficiency (LE, Δg) was calculated as the binding energy of ligand per atom (equation 4) [drawing 4] (4) where Nh is the number of heavy (i.e., non-hydrogen) atoms in the ligand.
The dissociation half-life (t1/2) was calculated by equation (5). [drawing 5] (5)

FL-FLAG Parkin [4] = target: T2, FL-FLAG Parkin; experiment: S5a ubiquitination HTRF (TR-FRET) assay; assay type: biochemical; conditions: Parkin heated at 56°C in presence of reducing agent; DTT at optimal 5–10 mM
Description: FL FLAG-Parkin (35 μM stock) was thermally treated by incubating at 56°C for 30 min. The thermally treated FL FLAG-Parkin stock was stored at −80 C. 5 μl of thermally treated or non-treated FLAG-Parkin diluted in assay buffer was added to wells of a 384-well non-binding plate. […] The reaction was allowed to proceed for 120 min at 30°C. 10 μl of stop-detection mix was added to a final concentration of 75 nM streptavidin XL665 conjugate, 12 mM EDTA in buffer containing 100 mM Na2HPO4 pH 7.0, 300 mM KF, and 0.1% BSA. The 20 μl reaction mixture was incubated for 60 min at room temperature. HTRF read using a LJL Analyst plate reader (Molecular Devices) at excitation 320 nm and emission 665 nm & 615 nm.

R0RBR Domain RT = target: T4, R0RBR Domain RT (Homo sapiens, UniProt O60260); experiment: SPR kinetics/affinity on amine-coupled Parkin R0RBR domain; assay type: binding; conditions: read-out: Affinities KD of protein ligands
T4 construct: DNA encoding residues 141–465 of Parkin (NM_004562.1) were cloned into the Champion pET SUMO vector; SUMO (His-SUMO of the Champion pET SUMO vector) (N, cleaved yes); made in house; host or cells: E. coli BL21 DE3
T4 sequence (O60260 141-465): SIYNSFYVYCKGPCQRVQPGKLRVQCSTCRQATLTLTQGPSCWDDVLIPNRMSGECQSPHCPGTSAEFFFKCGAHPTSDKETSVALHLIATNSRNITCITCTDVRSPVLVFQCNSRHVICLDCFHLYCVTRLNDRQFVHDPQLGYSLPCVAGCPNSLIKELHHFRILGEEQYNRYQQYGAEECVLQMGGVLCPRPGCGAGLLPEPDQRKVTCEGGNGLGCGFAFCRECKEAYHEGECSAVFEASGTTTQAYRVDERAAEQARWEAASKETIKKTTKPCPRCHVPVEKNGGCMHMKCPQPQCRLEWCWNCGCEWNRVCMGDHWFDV
Description: Kinetics and Affinity measurements were performed on a GE Healthcare Biacore T100 or T200 instrument. Anti-FLAG antibody M2 was immobilized on a CM5 sensor chip using standard amine coupling procedure at a concentration of 100 μg/ml to a level of 10000 response units (RU). Monomeric non-thermal treated FL-Parkin or thermal treated FL-Parkin was captured in 10 mM acetic acid pH 4.5 to levels of up to 16000 RU. The running buffer for both methods was 10 mM HEPES pH 7.4, 150 mM NaCl, 0.005% Tween-20, 4 mM reducing agent. Typically, the 4 flow cells of the sensor chips were used as follows: flow cell 1 served as a reference and was activated and deactivated. […]
To test binding of reducing agents in the absence of small molecules, the reducing agents were diluted and injected in buffer without reducing agents for 180 sec and a dissociation phase of 600 sec. […] The time-dependent binding curves were monitored simultaneously. […]
Kinetic and affinity data were solvent corrected (fragments only), reference subtracted and blank subtracted using the Biacore T200 evaluation software V.1. Kinetic constants were determined by curve fitting using a 1∶1 binding model. […] The rate of complex formation (1∶1 interaction) during fragment injection was calculated according to the equation (2): [drawing 2] […] Data were simultaneously fitted by the software and the dissociation constant KD calculated using equation (3). […]

[5] = SPR, 50 mM HEPES pH 8.8, 0.005% Tween-20, 0.01% PF-127, no other reducing agent

Compound | direct binding of reducing agent by SPR [1] | DTT binding in STD spectrum (FL-FLAG Parkin [2]) | pKd [3, 5] | affinity (KD) of reducing agent [3, 5] | Rmax ([3]; SPR, same run as the KD of DTT) [RU] | binding activity % Rmax ([3]; SPR, same run as the KD of DTT) [% Rmax] | dissociation half-life ([3]; calculated from the dissociation rate kd) [min] | direct binding of reducing agent by SPR [3] | improvement of Parkin S5a ubiquitination activity (FL-FLAG Parkin [4]) | dissociation at a fast rate (kd), time ([3]; SPR, protein ligand) [s] | pKd (R0RBR Domain RT)
O[C@@H](CS)[C@@H](O)CS (racemic) [DTT, Dithiothreitol] | showed binding | binding was evident | 5.85 | low micro-molar affinity | 34 | 47 | 28.95 | showed binding | – | – | –
OCCS [BME, β-mercaptoethanol] | did not exhibit any binding | – | – | – | – | – | – | did not exhibit any binding | up to 2.5 fold | – | –
O=C(O)CCP(CCC(=O)O)CCC(=O)O [TCEP] | did not exhibit any binding | – | – | – | – | – | – | did not exhibit any binding | up to 2.5 fold | – | –
UbcH7: Ubiquitin conjugating enzyme E2, non-tagged, purified in house | – | – | – | – | – | – | – | – | – | 30 | 5.15
